Assay results as given in patent publication US20250230171A1 (MOMA Therapeutics, Inc., priority 2023, published 2025).
Read-outs that look alike come from different tables or passages of the source.

Key:
DLD1 BRCA2 (−/−) cells = assay: 7-day cell viability assay (CellTiter-Glo), DLD1 BRCA2 (−/−); type: cell-based, human; conditions: n=2, read-out: Viability IC50 (uM) DLD1 BRCA2 null
Summary of the method: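 7-day growth assay in DLD1 cells with or without BRCA2; seeding densities chosen to keep log-linear growth. Compound: 10 uM top, 3-fold, 9 points. Endpoint: CTG ATP luminescence at RT.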

DLD1 WT cells = assay: 7-day cell viability assay (CellTiter-Glo), DLD1 parental (WT); type: cell-based, human; conditions: n=2
[1] = molecular target: biotinylated Avi-POLθ[2-894] (Homo sapiens (Human), UniProt O75417); assay: POLθ ATPase assay (ADP-Glo); conditions: n=2, read-out: Biochemical ATPase ADPGlo IC50
[2] = Homo sapiens, DLD-1, 168 h, 7-day viability
[3] = Homo sapiens, DLD-1, 168 h, 7-day CellTiter-Glo

Sequence of biotinylated Avi-POLθ[2-894] (O75417 2-894): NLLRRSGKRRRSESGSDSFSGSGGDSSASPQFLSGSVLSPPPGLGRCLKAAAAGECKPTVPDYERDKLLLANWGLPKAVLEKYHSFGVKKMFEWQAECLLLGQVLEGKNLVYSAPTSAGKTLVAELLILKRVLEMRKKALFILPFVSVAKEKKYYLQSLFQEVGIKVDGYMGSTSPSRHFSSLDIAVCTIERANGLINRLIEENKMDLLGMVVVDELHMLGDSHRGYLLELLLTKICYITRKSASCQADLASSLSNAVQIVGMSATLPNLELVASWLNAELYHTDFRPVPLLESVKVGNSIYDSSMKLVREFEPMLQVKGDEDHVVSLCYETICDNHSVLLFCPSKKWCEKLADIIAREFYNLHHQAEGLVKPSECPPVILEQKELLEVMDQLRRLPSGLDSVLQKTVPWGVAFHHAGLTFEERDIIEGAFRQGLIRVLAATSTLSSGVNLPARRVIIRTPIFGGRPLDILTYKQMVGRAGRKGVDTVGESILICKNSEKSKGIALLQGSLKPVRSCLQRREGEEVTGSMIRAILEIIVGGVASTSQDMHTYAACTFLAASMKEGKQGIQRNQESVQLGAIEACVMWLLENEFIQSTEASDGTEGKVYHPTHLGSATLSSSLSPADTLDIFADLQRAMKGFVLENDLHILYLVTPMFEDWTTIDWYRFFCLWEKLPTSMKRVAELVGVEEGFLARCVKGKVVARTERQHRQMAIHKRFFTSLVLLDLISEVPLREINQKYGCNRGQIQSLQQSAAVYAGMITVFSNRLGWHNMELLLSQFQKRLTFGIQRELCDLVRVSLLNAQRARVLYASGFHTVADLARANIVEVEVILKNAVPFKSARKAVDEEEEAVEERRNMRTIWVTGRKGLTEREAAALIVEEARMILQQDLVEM

Row | IC50 (DLD1 BRCA2 (−/−) cells; [2]) | IC50 [1] | IC50 (DLD1 BRCA2 (−/−) cells; [3]) | IC50 ([1]; POLθ ATPase, ADP-Glo) | IC50 (DLD1 BRCA2 (−/−) cells; 7-day CellTiter-Glo) | Molecule | IC50 (DLD1 WT cells; [2]) | IC50 (DLD1 WT cells; [3]) | IC50 (DLD1 WT cells; 7-day CellTiter-Glo)
1 | 0.5 to 2 µM | 0.001 to 0.015 µM | – | – | – | CCCNS(=O)(=O)N1Cc2nc(NC(=O)c3cnc(C)cc3-c3cc(C#N)ccc3OC)sc2C1 [Example 270] | ≥ 10 µM | – | –
2 | 0.001 to 0.1 µM | 0.001 to 0.015 µM | – | – | – | COc1cnc(Cl)cc1-c1cc(C)ncc1C(=O)Nc1nc2c(s1)CN(C(=O)c1ccnc(C)c1)C2 [Example 194] | ≥ 10 µM | – | –
3 | 0.001 to 0.1 µM | 0.001 to 0.015 µM | – | – | – | COc1cnc(Cl)cc1-c1cc(C)ncc1C(=O)Nc1nc2c(s1)CN(C(=O)c1cc(C(F)F)ccn1)C2 [Example 94, 2′-chloro-N-(5-(4-(difluoromethyl)picolinoyl)-5,6-dihydro-4H-pyrrolo[3,4-d]thiazol-2-yl)-5′-methoxy-6-methyl-[4,4′-bipyridine]-3-carboxamide] | ≥ 10 µM | – | –
4 | 0.001 to 0.1 µM | 0.001 to 0.015 µM | – | – | – | COc1cnc(Cl)cc1-c1cc(C)ncc1C(=O)Nc1nc2c(s1)CN(C(=O)c1ccc(OC(F)F)cn1)C2 [Example 93, 2′-chloro-N-(5-(5-(difluoromethoxy)picolinoyl)-5,6-dihydro-4H-pyrrolo[3,4-d]thiazol-2-yl)-5′-methoxy-6-methyl-[4,4′-bipyridine]-3-carboxamide] | 0.001 to 0.5 µM | – | –
5 | 0.001 to 0.1 µM | 0.001 to 0.015 µM | – | – | – | COc1cnc(Cl)cc1-c1cc(C)ncc1C(=O)Nc1nc2c(s1)CN(C(=O)c1ccc(C(F)(F)F)nc1)C2 [Example 42, 2′-chloro-5′-methoxy-6-methyl-N-(5-(6-(trifluoromethyl)nicotinoyl)-5,6-dihydro-4H-pyrrolo[3,4-d]thiazol-2-yl)-[4,4′-bipyridine]-3-carboxamide] | ≥ 10 µM | – | –
6 | 0.1 to 0.25 µM | 0.001 to 0.015 µM | – | – | – | COc1cnc(Cl)cc1-c1cc(C)ncc1C(=O)Nc1nc2c(s1)CN(C(=O)C1CC(C(F)F)C1)C2 (mixture of isomers) [Example 201] | ≥ 10 µM | – | –
7 | 0.001 to 0.1 µM | 0.001 to 0.015 µM | – | – | – | COc1cnc(Cl)cc1-c1cc(C)ncc1C(=O)Nc1nc2c(s1)CN(C(=O)c1cccnc1C(F)F)C2 [Example 39, 2′-chloro-N-(5-(2-(difluoromethyl)nicotinoyl)-5,6-dihydro-4H-pyrrolo[3,4-d]thiazol-2-yl)-5′-methoxy-6-methyl-[4,4′-bipyridine]-3-carboxamide] | ≥ 10 µM | – | –
8 | 0.1 to 0.25 µM | 0.001 to 0.015 µM | – | – | – | COc1cnc(Cl)cc1-c1cc(C)ncc1C(=O)Nc1nc2c(s1)CN(C(=O)c1ccc(C)cn1)C2 [Example 199] | 5 to 10 µM | – | –
9 | 0.001 to 0.1 µM | 0.001 to 0.015 µM | – | – | – | COc1cnc(Cl)cc1-c1cc(C)ncc1C(=O)Nc1nc2c(s1)CN(C(=O)C1CC(OC(F)(F)F)C1)C2 (stereo not drawn) [Example 196] | ≥ 10 µM | – | –
10 | 0.001 to 0.1 µM | 0.001 to 0.015 µM | – | – | – | COc1cnc(Cl)cc1-c1cc(C)ncc1C(=O)Nc1nc2c(s1)CN(C(=O)c1cnc(C(F)F)cc1Cl)C2 [Example 36, 2′-chloro-N-(5-(4-chloro-6-(difluoromethyl)nicotinoyl)-5,6-dihydro-4H-pyrrolo[3,4-d]thiazol-2-yl)-S′-methoxy-6-methyl-[4,4′-bipyridine]-3-carboxamide] | ≥ 10 µM | – | –
11 | 0.001 to 0.1 µM | 0.001 to 0.015 µM | – | – | – | COc1cnc(Cl)cc1-c1cc(C)ncc1C(=O)Nc1nc2c(s1)CN(C(=O)c1c(OC)cnn1C)C2 [Example 146] | ≥ 10 µM | – | –
12 | 0.001 to 0.1 µM | 0.001 to 0.015 µM | – | – | – | COc1cnc(Cl)cc1-c1cc(C)ncc1C(=O)Nc1nc2c(s1)CN(C(=O)c1cc(C)n(C)n1)C2 [Example 17, 2′-chloro-N-(5-(1,5-dimethyl-1H-pyrazole-3-carbonyl)-5,6-dihydro-4H-pyrrolo[3,4-d]thiazol-2-yl)-5′-methoxy-6-methyl-[4,4′-bipyridine]-3-carboxamide] | 0.001 to 0.5 µM | – | –
13 | 0.5 to 2 µM | 0.001 to 0.015 µM | – | – | – | COc1ccncc1C(=O)N1Cc2nc(NC(=O)c3cnc(C)cc3-c3cc(Cl)ncc3OC)sc2C1 [Example 155] | ≥ 10 µM | – | –
14 | 0.1 to 0.25 µM | 0.001 to 0.015 µM | – | – | – | COc1cnc(Cl)cc1-c1cc(C)ncc1C(=O)Nc1nc2c(s1)CN(C(=O)c1nn(C)cc1Cl)C2 (racemic) [Example 152, (Racemic)-4-(5-Cyano-2-methoxyphenyl)-6-methyl-N-(6-(phenylamino)-4,5,6,7-tetrahydrobenzo[d]thizaol-2-yl)nicotinamide] | ≥ 10 µM | – | –
15 | 0.001 to 0.1 µM | 0.001 to 0.015 µM | – | – | – | COc1cnc(Cl)cc1-c1cc(C)ncc1C(=O)Nc1nc2c(s1)CN(C(=O)c1cc(C)nn1C)C2 [Example 49, 2′-chloro-N-(5-(1,3-dimethyl-1H-pyrazole-5-carbonyl)-5,6-dihydro-4H-pyrrolo[3,4-d]thiazol-2-yl)-5′-methoxy-6-methyl-[4,4′-bipyridine]-3-carboxamide] | ≥ 10 µM | – | –
16 | 0.001 to 0.1 µM | 0.001 to 0.015 µM | – | – | – | COc1cnc(Cl)cc1-c1cc(C)ncc1C(=O)Nc1nc2c(s1)CN(C(=O)c1ncccc1OC(F)F)C2 [Example 145] | ≥ 10 µM | – | –

Second part, the molecule before the results:

Row | Molecule | IC50 (DLD1 BRCA2 (−/−) cells; [2]) | IC50 [1] | IC50 (DLD1 BRCA2 (−/−) cells; [3]) | IC50 ([1]; POLθ ATPase, ADP-Glo) | IC50 (DLD1 BRCA2 (−/−) cells; 7-day CellTiter-Glo) | IC50 (DLD1 WT cells; [2]) | IC50 (DLD1 WT cells; [3]) | IC50 (DLD1 WT cells; 7-day CellTiter-Glo)
17 | COc1cnc(Cl)cc1-c1cc(C)ncc1C(=O)Nc1nc2c(s1)CN(C(=O)c1ccc(OC(F)F)nc1Cl)C2 | – | – | 0.001 to 0.1 µM | 0.001 to 0.015 µM | – | – | ≥ 10 µM | –
18 | COc1cnc(Cl)cc1-c1cc(C)ncc1C(=O)Nc1nc2c(s1)CN(C(=O)[C@@H]1C[C@H]1C(F)F)C2 [Example 3, 2′-chloro-N-(5-((1R,2R)-2-(difluoromethyl)cyclopropane-1-carbonyl)-5,6-dihydro-4H-pyrrolo[3,4-d]thiazol-2-yl)-5′-methoxy-6-methyl-[4,4′-bipyridine]-3-carboxamide] | 0.001 to 0.1 µM | 0.001 to 0.015 µM | – | – | – | 2 to 5 µM | – | –
19 | COc1cc(C(=O)N2Cc3nc(NC(=O)c4cnc(C)cc4-c4cc(C#N)ccc4OC)sc3C2)ccc1Cl | – | – | 0.001 to 0.1 µM | 0.001 to 0.015 µM | – | – | 5 to 10 µM | –
20 | N-(5-(4-Chloro-2-methoxybenzoyl)-5,6-dihydro-4H-pyrrolo[3,4-d]thiazol-2-yl)-4-(5-cyano-2-methoxyphenyl)-6-methylnicotinamide [Example 437] | – | – | – | 0.001 to 0.015 µM | 0.001 to 0.1 µM | – | – | ≥ 10 µM
21 | COc1cnc(Cl)cc1-c1cc(C)ncc1C(=O)Nc1nc2c(s1)CN(C(=O)c1nc3ccccc3o1)C2 | – | – | 0.001 to 0.1 µM | 0.001 to 0.015 µM | – | – | ≥ 10 µM | –
22 | COc1ccc(C#N)cc1-c1cc(C)ncc1C(=O)Nc1nc2c(s1)CN(C(=O)[C@H]1C[C@@H](C#N)C1)C2 | ≥ 2 µM | 0.001 to 0.015 µM | – | – | – | ≥ 10 µM | – | –
23 | COc1ccc(C#N)cc1-c1cc(C)ncc1C(=O)Nc1nc2c(s1)CN(C(=O)c1cc(C)ccn1)C2 | 0.5 to 2 µM | 0.001 to 0.015 µM | – | – | – | ≥ 10 µM | – | –
24 | COc1cnc(Cl)cc1-c1cc(C)ncc1C(=O)Nc1nc2c(s1)CN(C(=O)c1ccccn1)C2 | 0.1 to 0.25 µM | 0.001 to 0.015 µM | – | – | – | ≥ 10 µM | – | –
25 | COc1cnc(Cl)cc1-c1cc(C)ncc1C(=O)Nc1nc2c(s1)CN(C(=O)c1ccc(C(F)(F)F)nc1OC)C2 [Example 15, 2′-chloro-5′-methoxy-N-(5-(2-methoxy-6-(trifluoromethyl)nicotinoyl)-5,6-dihydro-4H-pyrrolo[3,4-d]thiazol-2-yl)-6-methyl-[4,4′-bipyridine]-3-carboxamide] | 0.001 to 0.1 µM | 0.001 to 0.015 µM | – | – | – | 5 to 10 µM | – | –
26 | COc1cnc(Cl)cc1-c1cc(C)ncc1C(=O)Nc1nc2c(s1)CN(C(=O)c1nccc(Cl)c1C)C2 | – | – | 0.001 to 0.1 µM | 0.001 to 0.015 µM | – | – | ≥ 10 µM | –
27 | COc1cnc(Cl)cc1-c1cc(C)ncc1C(=O)Nc1nc2c(s1)CN(C(=O)c1cn(C)nc1OC)C2 | 0.25 to 0.5 µM | 0.001 to 0.015 µM | – | – | – | ≥ 10 µM | – | –
28 | COc1cnc(Cl)cc1-c1cc(C)ncc1C(=O)Nc1nc2c(s1)CN(C(=O)c1cccc(Cl)n1)C2 [Example 7, 2′-chloro-N-(5-(6-chloropicolinoyl)-5,6-dihydro-4H-pyrrolo[3,4-d]thiazol-2-yl)-5′-methoxy-6-methyl-[4,4′-bipyridine]-3-carboxamide] | 0.001 to 0.1 µM | 0.001 to 0.015 µM | – | – | – | 2 to 5 µM | – | –
29 | COc1nccc(C(=O)N2Cc3nc(NC(=O)c4cnc(C)cc4-c4cc(Cl)ncc4OC)sc3C2)n1 | – | – | 0.001 to 0.1 µM | 0.001 to 0.015 µM | – | – | ≥ 10 µM | –
30 | COc1cccc(C(=O)N2Cc3nc(NC(=O)c4cnc(C)cc4-c4cc(Cl)ncc4OC)sc3C2)n1 | – | – | 0.001 to 0.1 µM | 0.001 to 0.015 µM | – | – | 2 to 5 µM | –
31 | COc1cnc(Cl)cc1-c1cc(C)ncc1C(=O)Nc1nc2c(s1)CN(C(=O)c1ccc(OC)c(C(F)F)n1)C2 | – | – | 0.001 to 0.1 µM | 0.001 to 0.015 µM | – | – | ≥ 10 µM | –
32 | COc1ccc(Cl)c(C(=O)N2Cc3nc(NC(=O)c4cnc(C)cc4-c4cc(Cl)ncc4OC)sc3C2)n1 | – | – | 0.001 to 0.1 µM | 0.001 to 0.015 µM | – | – | ≥ 10 µM | –
33 | N-(5-(2-Chloro-5-(difluoromethyl)benzoyl)-5,6-dihydro-4H-pyrrolo[3,4-d]thiazol-2-yl)-4-(5-cyano-2-methoxyphenyl)-6-methylnicotinamide [Example 489] | – | – | – | 0.001 to 0.015 µM | 0.001 to 0.1 µM | – | – | 5 to 10 µM
34 | COc1cnc(Cl)cc1-c1cc(C)ncc1C(=O)Nc1nc2c(s1)CN(C(=O)c1ncc(Cl)cc1OC)C2 | 0.001 to 0.1 µM | 0.001 to 0.015 µM | – | – | – | ≥ 10 µM | – | –
35 | COc1cnc(Cl)cc1-c1cc(C)ncc1C(=O)Nc1nc2c(s1)CN(C(=O)c1cnn(C)c1Cl)C2 | 0.001 to 0.1 µM | 0.001 to 0.015 µM | – | – | – | ≥ 10 µM | – | –
36 | COc1ccccc1-c1cc(C)ncc1C(=O)Nc1nc2c(s1)CN(C(=O)c1ccccc1)CC2 | 0.5 to 2 µM | ≥ 0.9 µM | – | – | – | 0.5 to 2 µM | – | –
